Marks after values point to notes of the source that are not given here.
Assays:
[1] = In vitro release, membrane diffusion procedure, with kinetic model fitting; assay type: physicochemical; details: PBS pH 7.4 with 0.2% w/v SLS, 37 °C
Procedure: In triplicate, the release behavior of PRZ from the assembled PMMs was investigated utilizing a type 1, SR 8 Plus USP dissolution tester apparatus (Hanson Research, Chatsworth, Los Angeles, CA, USA) employing the membrane diffusion procedure. […] For establishing the sink condition, 70 mL of phosphate-buffered saline (PBS) comprising 0.2% w/v sodium lauryl sulfate (SLS) was used as the release milieu after adjusting the pH to 7.4 and setting the temperature to 37 ± 0.5 °C [27]. After fixing the filled cylinders to the USP dissolution apparatus shafts, a revolving speed of 50 rpm was applied. About 1-mL aliquots were intermittently pulled out after 0.5, 1, 2, 4, 6, 8, 12 and lastly after 24 h as prescheduled time intervals. In order to maintain the volume of the dissolution milieu at a fixed level, each aspiration was recompensed with a fresh milieu. After applying the appropriate dilution, a spectrophotometer set at λmax 263 was used to quantify PRZ in the collected samples. Afterwards, PRZ accumulative % released, as mean (±SD) values, was graphed versus time. An analogous experimentation was conducted on 2 mL of 1.5 mg/mL free PRZ aqueous suspension for comparative purposes. […] Amplification of the coefficient of determination (R^2) made the grounds for picking the most appropriate arithmetic model.

H. nana [2] = assay: Fecal egg count and egg reduction in H. nana-infected rats; assay type: in vivo, Hymenolepis nana; details: for Percentage reduction of egg count: 1st and 3rd day after treatment; for Mean egg count, 1st day after treatment / Mean egg count, 3rd day after treatment: fecal egg count per gram (EPG), n = 10
From the text: (§1) Mature H. nana worms were gathered from naturally-infected Mus musculus and kept in outbred rats. Thereafter, collection of the eggs was executed from infected rats that were euthanized on day 16th post infection. Infectious shell-free eggs were produced from the gravid segments of adult worms via agitating the egg suspension with 3 mm-diameter glass beads shortly prior to use.
(§2) The rats were males weighing 120–150 g and were free of parasitic infections. The rats were housed in a specific pathogen-free environment under standard conditions (22 ± 2 °C and 50–60% humidity) and were supplied food and water ad libitum. Rats of groups I-V were inoculated with shell-free eggs via the oral route using a stomach tube. Each animal received 3000 eggs in 0.1 mL of PBS pH 7.4. At day 16th post infection, a fecal examination was carried out and egg count per gram was detected using the McMaster technique. Group I was used as the infected non-treated control group. […] Animals of group VI were used as the non-infected non-treated control group. […] All procedures for agent administration, blood and tissue manipulation were in accordance with the Guide for the Care and Use of Laboratory Animals (8th edition) published in 2011 by the United States National Academy of Sciences.
Fecal egg count per gram (EPG) was estimated in the different groups on day 21 and 23 of the experiment. Fecal egg reduction percentage was calculated based on the formula [34]: Fecal egg reduction percentage=EPG before treatment−EPG post treatment/EPG before treatment×100

H. nana [3] = assay: Worm burden and worm reduction in H. nana-infected rats; assay type: in vivo, Hymenolepis nana; details: for Percentage reduction of worm count: rats; for Worm count: worm numbers per rat, 23rd day, n = 10
From the text: as §1, §2
On the 23rd day of the experiment, the rats were euthanized and the small intestines were removed. The small intestines were longitudinally dissected and the worm burdens were assessed.

H. nana [4] = assay: Intestinal histopathology (H&E) in H. nana-infected rats; assay type: in vivo, Hymenolepis nana
Procedure: as §2
Intestines of rats from different groups were gathered and instantly fixed for 24 h in neutrally buffered 10% formalin. Wet tissue sections were dehydrated through a series of alcohols and embedded in paraffin. Serial 4 μm thick cuts were made on all paraffin blocks by rotatory microtome. Thereafter, the cuts were fixed on glass slides and the paraffin was removed. […]

H. nana eggs = assay: In vitro ovicidal activity, Fuchsin vital stain; assay type: cell-based, Hymenolepis nana; details: PRZ-PMMs finding at 50 µg/mL
Procedure: Three tubes for each concentration of each formulation were prepared. On clean glass slides, 100 µL of eggs of the different treatments were added and stained with 20 µL of freshly prepared Fuchsin for 10 min and examined under a light microscope.

[5] = Oral pharmacokinetics in rats, LC-MS/MS, non-compartmental analysis; details: male, Wistar, rat, 12.5 mg/kg
Procedure: Twelve male Wistar rats (120–150 g), procured from the animal facility of the Research Institute of Ophthalmology (Giza, Egypt), were arbitrarily allocated into two groups of six rats each. The polyacrylic cages, which the rats were lodged in, were maintained under controlled temperature (22 ± 2 °C) and relative humidity (55 ± 5%), in the presence of day and night cycled over 12 h intervals. The animals were provided with tap water ad libitum and standard forage till the night before dosing was commenced so that a 12 h starvation period was allowed. […] Next, centrifugation at 4000 rpm was directly applied to the tubes for 10 min in order to collect plasma. The isolated plasma samples were stored at −20 °C pending assay. The current study was reviewed and approved by our institutional Animal Ethics Committee of Beni-Suef University (protocol approval code: REC-A-PhBSU-20015).
A liquid chromatography–tandem mass spectrometry (LC–MS/MS) method was employed to assay the gathered plasma samples for PRZ. An Agilent eclipse C18 column (Agilent Technologies, Santa Clara, CA, USA) with the dimensions of 3.5 µm × 4.6 mm × 100 mm was employed for chromatographic separation utilizing the isocratic elution technique. The mobile phase, consisted of methanol and 0.1% formic acid (85:15, v/v), was delivered at a flow rate of 0.8 mL/min (split ratio 1/1). A sample injection volume of 10 µL was utilized. The temperatures of the column and autosampler oven were set to 40 °C and 15 °C, respectively. Electrospray ionization (ESI) in the positive mode was used for the operation of the mass spectrometer. Nitrogen was employed as the auxiliary and nebulizer gas. Source temperature, nebulizer gas, curtain gas and heater gas (i.e., the principal operation parameters) were adjusted at 500 °C, 60 psi, 25 psi and 60 psi, respectively. The ion spray voltage was tuned at 5500 V. Entrance potential, declustering potential, collision energy and collision exit potential (i.e., the compound parameters) were 10, 130, 15, 20 V for PRZ and 10, 91, 29, 12 V for diazepam as an internal standard (IS), respectively. Quantification was performed in the multiple reactions monitoring mode with m/z 313.18 → 203.10 for PRZ and m/z 285.31→193.00 for IS. Operation of the detector was at 1900 V. Analytical data processing was carried out through Analyst software (Version 1.4.2, Applied Biosystems, MDS SCIEX, Concord, ON, Canada).
A procedure based on liquid–liquid extraction was utilized. Briefly, to a plasma sample (100 µL), 10 µL of IS solution (50 ng/mL) was spiked and 1 mL of methyl-ter-butyl ether was added. The mixture was vortexed for 30 s to ensure homogeneity and then centrifugation at 3000 rpm was applied for 10 min. Into a conical glass tube, the transparent supernatant was transmitted and left at ambient temperature until the organic layer was entirely evaporated. The residues resulting from the evaporation process were then dissolved in the mobile phase and 10 µL of the solution was subsequently injected through the autosampler.
The non-compartmental pharmacokinetic analysis function built into the Excel Add-In software, PK Solver, was employed to analyze the time course of the PRZ concentration in rat plasma for estimation of pharmacokinetic parameters. The software assesses the maximal drug concentration (Cmax, ng/mL) and elapsed time to attain such concentration (Tmax, h) directly from the plasma concentration–time curve. The software adopts the trapezoidal rule method for quantifying the area under the curve (AUC) from 0 to t (AUC0–t, ng h/mL) and from 0 to infinity (AUC0–∞, ng h/mL).

[6] = cited from earlier work
[7] = cited from earlier work; remark: listed apart in the source
[8] = single oral dose 25 mg/kg, 25 mg/kg
[9] = single oral dose 25 mg/kg, listed as crude PRZ, 25 mg/kg

SMILES: O=C(C1CCCCC1)N1CC(=O)N2CCc3ccccc3C2C1 (stereo not shown) [Crude PRZ, praziquantel]
- Accumulative % released at 1 h [1]: 98.81 ± 5.94%
- Percentage reduction of egg count (H. nana [2]; single oral dose 12.5 mg/kg): 90.6–91.1%
- Reduction of eggs output in feces (H. nana [2]; single oral dose 12.5 mg/kg, 21st day): 90.6%
- Reduction of eggs output in feces (H. nana [2]; single oral dose 12.5 mg/kg, 23rd day): 91.1%
- Mean egg count, 1st day after treatment (H. nana [2]; single oral dose 12.5 mg/kg): 1033.20 ± 40.83 ^a,b,d,e
- Mean egg count, 3rd day after treatment (H. nana [2]; single oral dose 12.5 mg/kg): 966.60 ± 40.83 ^a,b,d,e
- Percentage reduction of egg count (H. nana [2]; [8]): 100%
- Percentage reduction of egg count (H. nana [2]; [9]): 100%
- Mean egg count, 1st day after treatment (H. nana [2]; single oral dose 25 mg/kg): 0.00 ± 0.00 ^a,c
- Mean egg count, 3rd day after treatment (H. nana [2]; single oral dose 25 mg/kg): 0.00 ± 0.00 ^a,c
- Percentage reduction of worm count (H. nana [3]; single oral dose 12.5 mg/kg, 12.5 mg/kg): 73.3%
- Percentage reduction of worm count (H. nana [3]; single oral dose 12.5 mg/kg, listed as crude PRZ, 12.5 mg/kg): 73.3%
- Percentage reduction of worm count (H. nana [3]; [8]): 100%
- Percentage reduction of worm count (H. nana [3]; [9]): 100%
- Worm count (H. nana [3]; single oral dose 12.5 mg/kg): 16.60 ± 1.14 ^a,b,d,e
- Worm count (H. nana [3]; single oral dose 25 mg/kg): 0.00 ± 0.00 ^a
- Intestinal histopathology, parasitic sections (H. nana [4]; 12.5 mg/kg oral): submucosal granulomatous reaction in association with the detected parasitic sections
- Intestinal histopathology, parasitic sections (H. nana [4]; 25 mg/kg oral): no parasitic sections
- Morphological changes of the eggs (H. nana eggs): mild shell deformities and embryo damage
- half-life ([5]; in vivo): 1.11 ± 0.04 h
- AUC(0-inf) ([5]; po): 566 ± 102 ng·h/mL
- AUC(0-t) ([5]; po): 390 ± 95.3 ng·h/mL
- Cmax ([5]; po): 290 ± 28.5 ng/mL
- MRT ([5]; po): 3.05 ± 0.46 h
- Tmax ([5]; po): 0.24 ± 0.03 h
- k el ([5]; po): 0.000173 s⁻¹
- Intrinsic hydrosolubility [6]: ~ 0.3 mg/mL
- Terminal half-life [7]: 1 to 1.5 h

Source: article PMC9608995 (Pharmaceutics, 2022)
